system: 380; test: selective drug sensitivity score (sDSS, relative to normal bone marrow) (sDSS (score)); higher = more potent and effective on the cell line relative to normal bone marrow cells; details: 72 h
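Note: ALL cell lines in 384-well plates, five doses spanning 10,000-fold, each plate scaled between vehicle and 100 µmol/L benzalkonium chloride controls, sDSS an adapted area-under-curve metric.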

Compound | selective drug sensitivity score
Cn1cc(-c2ccc(F)c(C(F)(F)F)c2)nc1C1CCN(c2ncnc3[nH]ncc23)CC1 (top concentration 10000 nM) | 12.3
O=C(Nc1ccc2[nH]nc(-c3ccncc3)c2c1)[C@@H]1CCN(CC(=O)N2CCN(c3ccc(-c4ncccn4)cc3)CC2)C1 (top concentration 10000 nM) | 1.66
CC(C)(C)c1cc(NC(=O)Nc2ccc(Oc3ccnc4[nH]c(=O)cnc34)cc2F)n(-c2ccccc2)n1 (top concentration 25000 nM) | -4.68
Nc1ncnc2c1nc(N)n2[C@@H]1O[C@H](CO)[C@@H](O)[C@H]1O [8-amino-adenosine] (top concentration 50000 nM) | 9.38
CC(C)[C@@H](CS(=O)(=O)C(C)C)N1C(=O)[C@@](C)(CC(=O)O)C[C@H](c2cccc(Cl)c2)[C@H]1c1ccc(Cl)cc1 [AMG-232] (top concentration 10000 nM) | 13
CC(C)[C@H](C(=O)Nc1ccc(C(=O)NO)cc1)c1ccccc1 [AR-42] (top concentration 10000 nM) | 10.1
O=C(Nc1c[nH]nc1-c1nc2ccc(CN3CCOCC3)cc2[nH]1)NC1CC1 [AT9283] (top concentration 1000 nM) | 11.3
CCN(CCO)CCCOc1ccc2c(Nc3cc(CC(=O)Nc4cccc(F)c4)[nH]n3)ncnc2c1 [AZD1152-HQPA] (top concentration 1000 nM) | 20.8
Cc1[nH]nc(C(F)(F)F)c1Cc1sc2c(c1C(=O)N1C[C@](C)(O)CO1)c(=O)n(C)c(=O)n2C(C)C [AZD3965] (top concentration 1000 nM) | 4.2

system: KASUMI-10; test: as above; details: 72 h

Compound | selective drug sensitivity score
COC12C(COC(N)=O)C3=C(C(=O)C(C)=C(N)C3=O)N1CC1NC12 (stereo in doubt) [Mitomycin_C] (top concentration 10000 nM) | -2.86
Cc1c(-c2c(-c3ccc(F)o3)sc3ncnc(O[C@H](Cc4ccccc4OCc4ccnn4CC(F)(F)F)C(=O)O)c23)ccc(OCCN2CCN(C)CC2)c1Cl (top concentration 1000 nM) | -2.64
Cc1ncc(Cl)cc1NCc1ccc(C(=O)N[C@@H](CC2CCCC2)C(=O)NC2CC2)s1 (top concentration 5000 nM) | 2.46
CCn1c(-c2nonc2N)nc2c(C#CC(C)(C)O)ncc(OC[C@H]3CCCNC3)c21 (top concentration 10000 nM) | 0.88
CN(c1ncccc1CNc1nc(Nc2ccc3c(c2)CC(=O)N3)ncc1C(F)(F)F)S(C)(=O)=O (top concentration 10000 nM) | 6.62
CNc1ncc2cc(-c3cc(NC(=O)NCCC(C)(C)C)c(F)cc3C)c(C)nc2n1 (top concentration 10000 nM) | 3.96
C[C@@]1(C(=O)Nc2ccc(F)nc2)CCCN1c1nc(Nc2cc(C3CC3)n[nH]2)c2cccn2n1 (top concentration 10000 nM) | 4.68
Cc1nc(Nc2n[nH]c3c2CN(C(=O)N[C@H](CN(C)C)c2ccccc2)C3(C)C)c2sccc2n1 (top concentration 10000 nM) | 1.68
Cn1cc(-c2[nH]c3cc(NC(=O)[C@H](N)C4CCCCC4)cc4c3c2C=NNC4=O)cn1 (top concentration 10000 nM) | 5.88
Cn1cc(-c2ccc(F)c(C(F)(F)F)c2)nc1C1CCN(c2ncnc3[nH]ncc23)CC1 (top concentration 10000 nM) | -0.14
O=C(Nc1ccc2[nH]nc(-c3ccncc3)c2c1)[C@@H]1CCN(CC(=O)N2CCN(c3ccc(-c4ncccn4)cc3)CC2)C1 (top concentration 10000 nM) | -0.74
CC(C)(C)c1cc(NC(=O)Nc2ccc(Oc3ccnc4[nH]c(=O)cnc34)cc2F)n(-c2ccccc2)n1 (top concentration 25000 nM) | 5.62
Nc1ncnc2c1nc(N)n2[C@@H]1O[C@H](CO)[C@@H](O)[C@H]1O [8-amino-adenosine] (top concentration 50000 nM) | 3.28
CC(C)[C@@H](CS(=O)(=O)C(C)C)N1C(=O)[C@@](C)(CC(=O)O)C[C@H](c2cccc(Cl)c2)[C@H]1c1ccc(Cl)cc1 [AMG-232] (top concentration 10000 nM) | 10.1
CC(C)[C@H](C(=O)Nc1ccc(C(=O)NO)cc1)c1ccccc1 [AR-42] (top concentration 10000 nM) | 6.88
O=C(Nc1c[nH]nc1-c1nc2ccc(CN3CCOCC3)cc2[nH]1)NC1CC1 [AT9283] (top concentration 1000 nM) | 8.42
CCN(CCO)CCCOc1ccc2c(Nc3cc(CC(=O)Nc4cccc(F)c4)[nH]n3)ncnc2c1 [AZD1152-HQPA] (top concentration 1000 nM) | 16
Cc1[nH]nc(C(F)(F)F)c1Cc1sc2c(c1C(=O)N1C[C@](C)(O)CO1)c(=O)n(C)c(=O)n2C(C)C [AZD3965] (top concentration 1000 nM) | 0

system: PF-382; test: as above; details: 72 h

Compound | selective drug sensitivity score
COC12C(COC(N)=O)C3=C(C(=O)C(C)=C(N)C3=O)N1CC1NC12 (stereo in doubt) [Mitomycin_C] (top concentration 10000 nM) | -2.86
Cc1c(-c2c(-c3ccc(F)o3)sc3ncnc(O[C@H](Cc4ccccc4OCc4ccnn4CC(F)(F)F)C(=O)O)c23)ccc(OCCN2CCN(C)CC2)c1Cl (top concentration 1000 nM) | -7.74
Cc1ncc(Cl)cc1NCc1ccc(C(=O)N[C@@H](CC2CCCC2)C(=O)NC2CC2)s1 (top concentration 5000 nM) | -0.94
CCn1c(-c2nonc2N)nc2c(C#CC(C)(C)O)ncc(OC[C@H]3CCCNC3)c21 (top concentration 10000 nM) | 4.48
CN(c1ncccc1CNc1nc(Nc2ccc3c(c2)CC(=O)N3)ncc1C(F)(F)F)S(C)(=O)=O (top concentration 10000 nM) | -0.78
CNc1ncc2cc(-c3cc(NC(=O)NCCC(C)(C)C)c(F)cc3C)c(C)nc2n1 (top concentration 10000 nM) | 9.66
C[C@@]1(C(=O)Nc2ccc(F)nc2)CCCN1c1nc(Nc2cc(C3CC3)n[nH]2)c2cccn2n1 (top concentration 10000 nM) | 6.18
Cc1nc(Nc2n[nH]c3c2CN(C(=O)N[C@H](CN(C)C)c2ccccc2)C3(C)C)c2sccc2n1 (top concentration 10000 nM) | 1.98
Cn1cc(-c2[nH]c3cc(NC(=O)[C@H](N)C4CCCCC4)cc4c3c2C=NNC4=O)cn1 (top concentration 10000 nM) | 4.48
Cn1cc(-c2ccc(F)c(C(F)(F)F)c2)nc1C1CCN(c2ncnc3[nH]ncc23)CC1 (top concentration 10000 nM) | -0.14
O=C(Nc1ccc2[nH]nc(-c3ccncc3)c2c1)[C@@H]1CCN(CC(=O)N2CCN(c3ccc(-c4ncccn4)cc3)CC2)C1 (top concentration 10000 nM) | 0.56
CC(C)(C)c1cc(NC(=O)Nc2ccc(Oc3ccnc4[nH]c(=O)cnc34)cc2F)n(-c2ccccc2)n1 (top concentration 25000 nM) | -3.88
Nc1ncnc2c1nc(N)n2[C@@H]1O[C@H](CO)[C@@H](O)[C@H]1O [8-amino-adenosine] (top concentration 50000 nM) | 0.18
CC(C)[C@@H](CS(=O)(=O)C(C)C)N1C(=O)[C@@](C)(CC(=O)O)C[C@H](c2cccc(Cl)c2)[C@H]1c1ccc(Cl)cc1 [AMG-232] (top concentration 10000 nM) | -8.94
CC(C)[C@H](C(=O)Nc1ccc(C(=O)NO)cc1)c1ccccc1 [AR-42] (top concentration 10000 nM) | 5.78
O=C(Nc1c[nH]nc1-c1nc2ccc(CN3CCOCC3)cc2[nH]1)NC1CC1 [AT9283] (top concentration 1000 nM) | 7.72
CCN(CCO)CCCOc1ccc2c(Nc3cc(CC(=O)Nc4cccc(F)c4)[nH]n3)ncnc2c1 [AZD1152-HQPA] (top concentration 1000 nM) | 9.94
Cc1[nH]nc(C(F)(F)F)c1Cc1sc2c(c1C(=O)N1C[C@](C)(O)CO1)c(=O)n(C)c(=O)n2C(C)C [AZD3965] (top concentration 1000 nM) | 1.7

— the supplement of paper PMC8967900
